Measured values as given in patent US12059427B2, “Treatments for cachexia” (YINUOKE MEDICINE SCIENCE AND TECHNOLOGY COMPANY LTD., priority 2018, dated 2024).
Entries after “also recorded” stand apart in the source; their conditions may differ.

What was measured:
[1] = tested on: cachectic Balb/c mice injected with C26 tumor cells; test: Body weight of cachectic mice (C26 cachexia mouse model); type: in vivo
[2] = tested on: cachectic Balb/c mice injected with C26 tumor cells; test: Kaplan-Meier survival analysis of cachectic mice (C26 model); type: in vivo, mouse
[3] = 0.3 mg Cytarabine, 0.1 mg Ketorolac or combination (0.3 mg + 0.1 mg) in PBS s.c. on three consecutive days (1 cycle), 8 days observation, vs untreated
[4] = ~50 day period, two 3-day/one-injection-per-day cycles s.c., 0.3 mg Cytarabine, 0.1 mg Ketorolac or combination vs PBS

Structure (SMILES)	body weight of cachectic mice [1, 3]	survival (Kaplan-Meier) [2, 4]	transient weight loss after treatment ([1]; days 0-5 after start of treatment, 0.3 mg Cytarabine alone vs combination with 0.1 mg Ketorolac, s.c.)	body weight of cachectic mice ([1]; 0.05 mg orally, three consecutive days per cycle, 6 days/2 cycles, vs PBS)	body weight of cachectic mice ([1]; 0.05 mg orally, three consecutive days per cycle, 6 days/2 cycles, vs PBS, listed as (R)-ketorolac)	survival (Kaplan-Meier) ([2]; two cycles of daily oral administration, 40 day period, vs PBS vehicle)	survival (Kaplan-Meier) ([2]; two cycles of daily oral administration, 40 day period, vs PBS vehicle, listed as (R)-ketorolac)
O=C(c1ccccc1)c1ccc2n1CCC2C(=O)O (stereo not drawn) [Ketorolac, Ketorolac tromethamine]	the body weight drop eventually reverses for all treated mice; also recorded: reverse body weight drop in cachectic mice	finally ketorolac alone					
Nc1ccn([C@@H]2O[C@H](CO)[C@@H](O)[C@@H]2O)c(=O)n1 [Cytarabine, 1-(β-D-Arabinofuranosyl)cytosine]	the body weight drop eventually reverses for all treated mice; also recorded: reverse body weight drop in cachectic mice	highly significant increase in survival; also recorded: prolong survival of cachectic mice	transient weight loss seen on days 0-5				
O=C(c1ccccc1)c1ccc2n1CC[C@H]2C(=O)O [(R)-Ketorolac]				reverse body weight drop	regained body weight after initiation of the treatment and maintained stabilized body weight during the treatment	prolong survival of cachectic mice	significant efficacy as a single agent increasing the survival of cachectic mice
